Like-named read-outs stand apart in the source and are kept apart here. Marks after values point to notes of the source that are not given here.
Columns and labels:
[1] = Bidirectional permeability assay in Caco-2 cells; conditions: human, Caco-2, pH 7.4
[2] = Brain penetration in vivo assay (brain and plasma exposure); design: species or system mouse
Caco-2 cells [3] = conditions: human, Caco-2, 2 h, 3 μM, pH 7.4
[4] = Brain penetration in vivo assay (brain and plasma exposure)
Experimental: Brain Penetration In Vivo Assay
A pharmacokinetic study was performed using C57BL6 wild-type mice (n=3 per experiment) to determine brain and plasma exposure of compounds of the invention. The compound was administered orally in a solution of 5% ETHANOL: 90% PEG 300; 5% TPGS at 5 mL/kg for a final concentration of 10 mg/kg. Nice were euthanized 1 hour post-dose and plasma and brain were collected and frozen for analysis. Brain tissues were homogenized in a 1:1 volume of blank C57BL6 mouse plasma. Concentrations of the compound in plasma and brain homogenate were determined by LC-MS analysis.

in vitro = conditions: human, Caco-2, pH 7.4
[5] = tested on: IFNα-induced STAT phosphorylation (pSTAT5); assay: IFNα-induced STAT phosphorylation in human whole blood; assay type: cell-based; conditions: 1 h compound, 1000 U/mL IFNα A/D 15 min, CD3 positive population, read-out: Human Whole blood IFNa pSTAT5 IC50
Caco-2 cells [6] = assay: Bidirectional permeability assay in Caco-2 cells; conditions: for Efflux Ratio: Caco-2, 3 μM, pH 7.4, 2 hours; for CACO2 (A-B): permeability coefficient apical-to-basolateral, 3 μM, pH 7.4, 0.5% BSA, 2 hours, 37° C.

SMILES	CACO2 (A-B) (Caco-2 cells [3])	Ratio of exposure in brain to plasma (mouse) (1 h, 10 mpk, po) [4]	Efflux Ratio (Caco-2 cells [6])	CACO2 (A-B) (Caco-2 cells [6])	further results
C[C@H]1O[C@@H](O[C@H]2[C@@H](O)C[C@H](O[C@H]3[C@@H](O)C[C@H](O[C@H]4CC[C@@]5(C)[C@H](CC[C@@H]6[C@@H]5C[C@@H](O)[C@]5(C)[C@@H](C7=CC(=O)OC7)CC[C@]65O)C4)O[C@@H]3C)O[C@@H]2C)C[C@H](O)[C@@H]1O [Digoxin, reference compound]					Papp A→B at 2 h, 3 μM [1]: 1.8 ± 0.7 ×10⁻⁶ cm/s; Papp B→A at 2 h, 3 μM [1]: 26.5 ± 7.4 ×10⁻⁶ cm/s; efflux ratio at 2 h, 3 μM [1]: 14.7
[2H]C([2H])([2H])NC(=O)c1nnc(NC(=O)C2CC2)cc1Nc1cccc(-c2cnn(CCF)n2)c1OC [Example 2, 6-cyclopropaneamido-4-({3-[2-(2-fluoroethyl)-2H-1,2,3-triazol-4-yl]-2-methoxyphenyl}amino)-N—(^2H3)methylpyridazine-3-carboxamide]	427 nm/s				Ratio of exposure in brain to plasma (mouse) ([2]; footnote *: 2 mpk iv solution dose): 0.1*
[2H]C([2H])([2H])NC(=O)c1nnc(NC(=O)OC)cc1Nc1cccc(-c2cnn(C)n2)c1OC [Example 7, methyl N-(5-{[2-methoxy-3-(2-methyl-2H-1,2,3-triazol-4-yl)phenyl]amino}-6-[(^2H3)methylcarbamoyl]pyridazin-3-yl)carbamate]					Kp at 40 min ([2]; C57BL6, mouse, brain / plasma, 2 mg/kg, footnote **: 2 mpk iv solution dose, exposures measured at 40 minutes, read-out: Ratio of exposure in brain to plasma (mouse)): 0.5; Papp A→B at 2 h, 3 μM (in vitro): 41.6 ×10⁻⁶ cm/s; efflux ratio at 2 h, 3 μM (in vitro): 0.4; IC50 [5]: 390 nM
[2H]C([2H])([2H])NC(=O)c1nnc(NC(=O)[C@@H]2CC23CC3)cc1Nc1cccc(-c2cnn(C)n2)c1OC [Example 13, 4-{[2-methoxy-3-(2-methyl-2H-1,2,3-triazol-4-yl)phenyl]amino}-N—(^2H3)methyl-6-[(1R)-spiro[2.2]pentane-1-amido]pyridazine-3-carboxamide]		0.4	0.7	251 nm/s	
[2H]C([2H])([2H])NC(=O)c1nnc(NC(=O)N2CCC2)cc1Nc1cccc(-c2cnn(C)n2)c1OC [Example 51, 6-[(azetidine-1-carbonyl)amino]-4-{[2-methoxy-3-(2-methyl-2H-1,2,3-triazol-4-yl)phenyl]amino}-N—(^2H3)methylpyridazine-3-carboxamide]			0.9	429 nm/s	
[2H]C([2H])([2H])NC(=O)c1nnc(NC(=O)C2CC2)cc1Nc1cccc(-c2cnn(C3COC3)n2)c1OC [Example 53, 6-cyclopropaneamido-4-({2-methoxy-3-[2-(oxetan-3-yl)-2H-1,2,3-triazol-4-yl]phenyl}amino)-N—(^2H3)methylpyridazine-3-carboxamide]			0.7	425 nm/s	
[2H]C([2H])([2H])NC(=O)c1nnc(NC(=O)N(C)CC)cc1Nc1nccc(-c2cnn(C)n2)c1OC [Example 58, 6-{[ethyl(methyl)carbamoyl]amino}-4-{[3-methoxy-4-(2-methyl-2H-1,2,3-triazol-4-yl)pyridin-2-yl]amino}-N—(^2H3)methylpyridazine-3-carboxamide]			0.6	314 nm/s	
[2H]C([2H])([2H])NC(=O)c1nnc(NC(=O)N(C)C(C)C)cc1Nc1nccc(-c2cnn(C)n2)c1OC [Example 59, 4-{[3-methoxy-4-(2-methyl-2H-1,2,3-triazol-4-yl)pyridin-2-yl]amino}-N—(^2H3)methyl-6-{[methyl(propan-2-yl)carbamoyl]amino}pyridazine-3-carboxamide]			0.8	351 nm/s	
[2H]C([2H])([2H])NC(=O)c1nnc(NC(=O)C2CC2)cc1Nc1nc(F)cc(-c2cnn(C)n2)c1OC [Example 62, 6-(Cyclopropanecarboxamido)-4-((6-fluoro-3-methoxy-4-(2-methyl-2H-1,2,3-triazol-4-yl)pyridin-2-yl)amino)-N-(methyl-d3)pyridazine-3-carboxamide]					Kp at 1.5 h ([2]; C57BL6, mouse, brain / plasma, 2 mg/kg, footnote *****: 2 mpk iv solution dose, exposures measured at 90 minutes, read-out: Ratio of exposure in brain to plasma (mouse)): 0.6; Papp A→B at 2 h, 3 μM (in vitro): 43.2 ×10⁻⁶ cm/s; efflux ratio at 2 h, 3 μM (in vitro): 0.4; IC50 [5]: 120 nM

Now from value to compound, other results behind:

CACO2 (A-B) (Caco-2 cells [3])	Ratio of exposure in brain to plasma (mouse) (1 h, 10 mpk, po) [4]	SMILES	Efflux Ratio (Caco-2 cells [6])	CACO2 (A-B) (Caco-2 cells [6])	further results
368 nm/s	0.3	[2H]C([2H])([2H])NC(=O)c1nnc(NC(=O)C2CC2)cc1Nc1cccc(-c2cnn(CC(F)F)n2)c1OC [Example 3, 6-cyclopropaneamido-4-({3-[2-(2,2-difluoroethyl)-2H-1,2,3-triazol-4-yl]-2-methoxyphenyl}amino)-N—(^2H3)methylpyridazine-3-carboxamide]			
340 nm/s	0.1	[2H]C([2H])([2H])NC(=O)c1nnc(NC(=O)C2CC2)cc1Nc1ccc(F)c(-c2cnn(CC)n2)c1OC [Example 10, 6-cyclopropaneamido-4-{[3-(2-ethyl-2H-1,2,3-triazol-4-yl)-4-fluoro-2-methoxyphenyl]amino}-N—(^2H3)methylpyridazine-3-carboxamide]			
173 nm/s	0.7	[2H]C([2H])([2H])NC(=O)c1nnc(NC(=O)C2CC2)cc1Nc1cc(F)cc(-c2cnn(C3CC3)n2)c1OC [Example 12, 6-cyclopropaneamido-4-{[3-(2-cyclopropyl-2H-1,2,3-triazol-4-yl)-5-fluoro-2-methoxyphenyl]amino}-N—(^2H3)methylpyridazine-3-carboxamide]			
446 nm/s	0.8	[2H]C([2H])([2H])NC(=O)c1nnc(NC(=O)C2CC2)cc1Nc1nccc(-c2cnn(C3CC3)n2)c1OC [Example 14, 6-cyclopropaneamido-4-{[4-(2-cyclopropyl-2H-1,2,3-triazol-4-yl)-3-methoxypyridin-2-yl]amino}-N—(^2H3)methylpyridazine-3-carboxamide]			
282 nm/s		[2H]C([2H])([2H])NC(=O)c1nnc(NC(=O)C2CC2)cc1Nc1cc(C)cc(-c2cnn(C)n2)c1OC [Example 17, 6-cyclopropaneamido-4-{[2-methoxy-5-methyl-3-(2-methyl-2H-1,2,3-triazol-4-yl)phenyl]amino}-N—(^2H3)methylpyridazine-3-carboxamide]			Ratio of exposure in brain to plasma (mouse) (1 h, 10 mpk, po) ([2]; footnote ***: nanosupension in 0.5% methocel A4M, 0.1% tween 80, 99.4% water): 0.2***
